Data: US11512079B2, “Heterocycle substituted pyridine derivative antifungal agents” (Amplyx Pharmaceuticals, Inc., priority 2017, dated 2022)
In brackets after ≈: the same amount, converted by molar mass.

What was measured:
C. neoformans strain H99 [1] = assay: Delayed treatment model of cryptococcal meningitis, CD-1 mice; type: in vivo, Cryptococcus neoformans; conditions: treatment from 24 h after infection, 7 days; prodrug 60 mg/kg IP QD with 100 mg/kg ABT PO; AMB 3 mg/kg IP; n=5
Method: Infection was initiated on Day 1 and treatment was initiated 24 h later (Day 2) rather than 1 h. Treatments were administered for 7 days (final dose on Day 8) and mice were sacrificed on Day 9 for CFU enumeration.
Delayed treatment model. […] Fungal burden data were log10 transformed and evaluated using Kruskal-Wallis tests with Dunn's Multiple Comparison Test for Post-hoc analysis (Prism 5; GraphPad Software, Inc., San Diego, Calif.). A P value of ≤0.05 is considered statistically significant

C. neoformans strain H99 [2] = assay: Murine model of cryptococcal meningitis, dosing in the presence of the pan-CYP inhibitor ABT, CD-1 mice; type: in vivo, Cryptococcus neoformans; conditions: for reduction of CFU in brain vs untreated control / reduction of CFU in lung vs untreated control: preliminary experiment, 100 mg/kg ABT PO 2 h prior to each dose, n=5
Method: Efficacy of exemplary compounds in a murine model of cryptococcal meningitis when dosed in the presence of the pan-CYP inhibitor ABT. […] 100 mg/kg ABT was administered orally to male CD-1 mice 2 h prior to compound administration. Mice were injected with 6.9×10^4 CFU C. neoformans strain H99 per mouse via lateral tail vein at T=0 h. Treatment with each prodrug was initiated about 1 h post-infection by IP administration and continued daily for 7 days with 100 mg/kg ABT administered orally 2 h prior to each dose of compound. The mean log10 CFU/g brain and lung counts in untreated control mice were 7.83±0.09 and 4.67±0.88, respectively (FIG. 1).
[…] A 60 mg/kg dose QD without ABT was also evaluated as a control.
Cryptococcal meningitis model. C. neoformans strain H99 was grown in YPD broth at 30° C. on a shaker (220 rpm) for 24 h, centrifuged (1980 ref) and washed twice in PBS, resuspended in PBS, and quantified by hemacytometric count. CD-1 male mice were infected with ˜5×10^4 CFU per mouse via lateral tail vein injection of 100 μL. Mice were weighed, and treatment was within 1 h after infection. Treatments were administered daily for seven days. Mice were weighed daily and observed for acute and chronic adverse symptoms. Mice were sacrificed on day 8, and brain and left lung were homogenized and cultured for quantitative determination of tissue burden (CFU per gram of tissue). Tissues were homogenized for 25 seconds in […] phosphate buffered saline using two 6.5 mm steel beads and a Mini-Beadbeater 16 (Biospec Products, Inc., Bartlesville, Okla.), and serially diluted in 10-fold steps. Aliquots ([…]) of homogenate were plated and incubated for 3 to 7 days at 37° C. Fungal burden data were log10 transformed and evaluated using Kruskal-Wallis tests with Dunn's Multiple Comparison Test for Post-hoc analysis (Prism 5; GraphPad Software, Inc., San Diego, Calif.). A P value of ≤0.05 is considered statistically significant.

[3] = test system: C. neoformans US isolates; conditions: cited from earlier work
C. albicans 90028 = assay: Antifungal susceptibility testing, CLSI broth microdilution (Example 496/497); type: cell-based, Candida albicans; conditions: Candida albicans, 90028, read-out: MIC or MEC C. albicans 90028
Description: (§1) Isolates tested. C. neoformans strains H99, DUMC 118.00, DUMC 158.03 and C. gattii strains R272, and RSA-MW-3515 were obtained from Duke University. C. albicans 90028, A. fumigatus MYA3626, C. neoformans 14116, C. neoformans 76484 and the pathogenic Cryptococcus reference strains panel (ATCC MP-11) were obtained from American Type Culture Collection (ATCC, Manassas, Va., USA). The MP-11 panel consists of strains representing eight molecular types and three subtypes of C. neoformans and C. gattii.
(§2) Antifungal susceptibility testing. To establish antimicrobial activity, broth microdilution susceptibility testing was performed according to Clinical and Laboratory Standards Institute (CLSI) guidelines M27-A3 for yeasts and M38-A2 for molds. Compound 2 and analogs were first diluted in DMSO to obtain intermediate dilutions. These were further diluted in microtiter plates to obtain a final concentration of 2 to 0.002 μg/mL. 1 μl of DMSO was added to “No drug” control wells. The solutions were mixed on a plate shaker for 10 mins and plates incubated at 35° C. for 40 to 48 h (C. albicans, A. fumigatus) and 72 h (C. neoformans). The minimum concentration that led to 50% reduction in fungal growth as compared to the control (with the aid of a reading mirror) was determined as the minimum inhibitory concentration (MIC) for C. albicans and C. neoformans. The minimum concentration that led to shortening of hyphae as compared to hyphal growth in DMSO control wells was determined as the minimum effective concentration (MEC) for A. fumigatus (as read for echinocandins). The use of the MIC and MEC endpoints for Compound 2 against yeasts and molds, respectively has been described previously.

A. fumigatus MYA3626 = assay: as above; type: cell-based, Aspergillus fumigatus; conditions: Aspergillus fumigatus, MYA3626, read-out: MIC or MEC A. fumigatus MYA3626
Description: as §1, §2

[4] = in the presence of ABT, 20 mg/kg Ex. 172 prodrug, 60 mg/kg Ex. 173 prodrug, 80 mg/kg Compound 1

Nc1c(-c2cc(Cc3ccc(Oc4cccc(F)n4)cc3)no2)ccc[n+]1COP(=O)([O-])O
reduction of log10 CFU/g brain vs untreated control, delayed treatment (C. neoformans strain H99 [1]): 6.84 log10 CFU/g
reduction of log10 CFU/g lung vs untreated control, delayed treatment (C. neoformans strain H99 [1]): 4.59 log10 CFU/g
reduction in lung burden, without ABT (C. neoformans strain H99 [2]; dose response study, 60 mg/kg/day without ABT, non-significant): 0.74 log10 CFU/g
log10 CFU/g brain reductions at doses of similar AUC (approximately 80 μg·h/mL) (C. neoformans strain H99 [2]; [4]): 2.95 log10 CFU/g
log10 CFU/g lung reductions at doses of similar AUC (approximately 80 μg·h/mL) (C. neoformans strain H99 [2]; [4]): 3.69 log10 CFU/g
reduction of CFU in brain vs untreated control (C. neoformans strain H99 [2]; 34 mg/kg QD IP 7 days): 7.05 log10 CFU/g
reduction of CFU in lung vs untreated control (C. neoformans strain H99 [2]; 34 mg/kg QD IP 7 days): approximately 4.67 log10 CFU/g
reduction of CFU in brain vs untreated control (C. neoformans strain H99 [2]; 60 mg/kg QD IP 7 days): 7.13 log10 CFU/g
reduction of CFU in lung vs untreated control (C. neoformans strain H99 [2]; 60 mg/kg QD IP 7 days): approximately 4.67 log10 CFU/g

Nc1nc(=O)[nH]cc1F [5-flucytosine]
MIC90 versus C. neoformans, US isolates [3]: 8 µg/mL (≈ 62 µM)

CC[C@H](C)C[C@H](C)CCCCCCCCC(=O)N[C@H]1C[C@@H](O)[C@@H](NCCN)NC(=O)[C@@H]2[C@@H](O)CCN2C(=O)[C@H]([C@H](O)CCN)NC(=O)[C@H]([C@H](O)[C@@H](O)c2ccc(O)cc2)NC(=O)[C@@H]2C[C@@H](O)CN2C(=O)[C@H]([C@@H](C)O)NC1=O [CAS, caspofungin, reference compound]
MIC (C. albicans 90028): 0.5 µg/mL (≈ 0.457 µM)
MIC (A. fumigatus MYA3626): 0.25 µg/mL (≈ 0.229 µM)

CC(=O)N1CCN(c2ccc(OCC3COC(Cn4ccnc4)(c4ccc(Cl)cc4Cl)O3)cc2)CC1 (stereo not shown) [ketoconazole]
MIC90 versus C. neoformans, US isolates [3]: 0.06 µg/mL (≈ 0.113 µM)
